Patent US8633301B2, “Antitumor combinations containing antibodies recognizing specifically CD38 and vincristine” (Sanofi, priority 2008, dated 2014)
Values joined by “and” are separate entries in the source; they are usually repeats but may differ in a detail not shown here. Identical values can stand only once. “Also recorded” adds a separate entry of the source.

Assays:
[1] = Toxicity (body weight change, drug death) in DND-41 tumor-bearing SCID mice; type: in vivo
[2] = test system: human T-cell acute lymphoblastic leukemia (T-ALL) cell line, DND-41; experiment: Antitumor efficacy against advanced DND-41 tumors implanted in SCID mice; conditions: for T-C (tumor growth delay): time to reach 750 mg; for TFS (tumor free survivors): end of study day 160
Procedure: A product is considered to be active if log10 cell kill is greater than or equal to 0.7. A product is considered to be very active if log10 cell kill is greater than or equal to 2.8.
The animals subjected to the experiment, generally mice, are subcutaneously grafted bilaterally with 30 to 60 mg of a tumor fragment on day 0. The animals bearing tumors are randomized based on their tumor size before being subjected to the various treatments and controls. Chemotherapy begins when tumors have reached a predetermined size after grafting, depending on the type of tumor, and the animals are observed every day. […] The groups are then weighed once or twice a week until the end of the trial.
The tumors are measured 1 to 5 times a week, depending on the tumor doubling time, until the tumor reaches approximately 2 g, or until the animal dies (if this occurs before the tumor reaches 2 g). The animals are necropsied immediately after euthanasia or death.
The selected tumor model was a transplantable human T-cell acute lymphoblastic leukemia (T-ALL) cell line, DND-41, implanted in SCID mice.
Vincristine was formulated in 5% glucose in water.
Tumor doubling time=3.4 days.

[3] = biological target: T1, murine CD38 (Mus musculus, UniProt P56528); experiment: Cross-reactivity of the antibody with murine CD38; type: binding
T1 sequence (P56528 1-304): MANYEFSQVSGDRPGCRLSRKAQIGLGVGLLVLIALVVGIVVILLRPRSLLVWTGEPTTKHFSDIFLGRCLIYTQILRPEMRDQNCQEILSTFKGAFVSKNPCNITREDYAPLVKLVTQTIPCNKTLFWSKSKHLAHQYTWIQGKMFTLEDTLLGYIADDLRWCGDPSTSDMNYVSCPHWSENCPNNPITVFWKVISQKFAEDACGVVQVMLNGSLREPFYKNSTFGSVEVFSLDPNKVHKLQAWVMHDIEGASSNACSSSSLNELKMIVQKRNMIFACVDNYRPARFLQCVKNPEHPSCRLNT

[4] = vincristine alone 0.3 mg/kg/inj (total 1.2) IV
[5] = vincristine alone 0.5 mg/kg/inj (total 2.0) IV
[6] = vincristine alone 0.8 mg/kg/inj (total 3.2) IV
[7] = vincristine alone 0.3 mg/kg/inj IV
[8] = vincristine alone 0.5 mg/kg/inj IV
[9] = vincristine alone 0.8 mg/kg/inj IV
[10] = hu38SB19 alone 40.0 mg/kg/inj (total 160.0) IV days 18, 21, 24, 27
[11] = hu38SB19 alone 40.0 mg/kg/inj IV

CC[C@]1(O)C[C@H]2CN(CCc3c([nH]c4ccccc34)[C@@](C(=O)OC)(c3cc4c(cc3OC)N(C=O)[C@H]3[C@@](O)(C(=O)OC)[C@H](OC(C)=O)[C@]5(CC)C=CCN6CC[C@]43[C@@H]65)C2)C1 [vincristine, Vincristine]
BWC (body weight change) at nadir [1, 4]: −0.4% | drug death ([1]; vincristine alone 0.3 mg/kg/inj (total 1.2) IV days 18, 21, 24, 27): 0/6 | BWC (body weight change) at nadir [1, 5]: −5.3% | drug death ([1]; vincristine alone 0.5 mg/kg/inj (total 2.0) IV days 18, 21, 24, 27): 0/6 | BWC (body weight change) at nadir [1, 6]: −10.4% | drug death ([1]; vincristine alone 0.8 mg/kg/inj (total 3.2) IV days 18, 21, 24, 27): 0/6 | BWC (body weight change) at nadir ([1]; vincristine alone 1.3 mg/kg/inj (total 5.2) IV): −25.2% | drug death ([1]; vincristine alone 1.3 mg/kg/inj (total 5.2) IV days 18, 21, 24, 27): 0/6 | comments (activity/toxicity rating) ([1]; vincristine alone 1.3 mg/kg/inj IV): Toxic (−25% BWC) | body weight loss at nadir ([1]; vincristine alone 1.3 mg/kg/injection, nadir on day 27): 25.2% | highest nontoxic dose (HNTD) ([1]; vincristine alone IV days 18, 21, 24, 27, total injected dose 3.2 mg/kg): 0.8 mg/kg/inj | log10 cell kill [2, 4]: 1.4 | T-C (tumor growth delay) [2, 4]: 15.6 days | comments (activity/toxicity rating) [2, 7]: remained active | TFS (tumor free survivors) [2, 7]: 0/6 | log10 cell kill [2, 5]: 3.8 | T-C (tumor growth delay) [2, 5]: 43.3 days | comments (activity/toxicity rating) [2, 8]: Highly active | TFS (tumor free survivors) [2, 8]: no TFS and 0/6 | log10 cell kill [2, 6]: 4.4 | T-C (tumor growth delay) [2, 6]: 49.6 days | comments (activity/toxicity rating) [2, 9]: HNTD - Highly active | TFS (tumor free survivors) [2, 9]: no TFS and 0/6

hu38SB19: humanized anti-CD38 monoclonal antibody 38SB19; VH SEQ ID NO: 66, VL SEQ ID NO: 62 or 64
tolerability / toxicity ([1]; hu38SB19 alone 40 mg/kg/inj): well tolerated | BWC (body weight change) at nadir [1, 10]: −2.1% | drug death [1, 10]: 0/6 | cross-reactivity with murine CD38 [3]: lack of cross-reactivity | log10 cell kill [2, 10]: 0.5 | T-C (tumor growth delay) [2, 10]: 6.1 days | comments (activity/toxicity rating) [2, 11]: not active; also recorded: HDT- Inactive | TFS (tumor free survivors) [2, 11]: 0/6
